Test results as given in patent US5714509A, “Inhibitors of bacterial sialidase and methods of making and using the same” (The University of Alabama, priority 1995, dated 1998).

Tests used:
[1] = tested on: influenza virus sialidase; conditions: cited from earlier work; for IC50: read-out: IC50 for influenza virus sialidase inhibition
[2] = target: T1, bacterial sialidase (Micromonospora viridifaciens) (Micromonospora viridifaciens, UniProt Q02834); experiment: Inhibition of bacterial sialidase (Micromonospora viridifaciens), fluorescence assay with MUN; format: biochemical; conditions: 10 mM inhibitor, 0.1 mM MUN, pH 6.0, 37° C., 15 minutes
T1 sequence (Q02834 38-647): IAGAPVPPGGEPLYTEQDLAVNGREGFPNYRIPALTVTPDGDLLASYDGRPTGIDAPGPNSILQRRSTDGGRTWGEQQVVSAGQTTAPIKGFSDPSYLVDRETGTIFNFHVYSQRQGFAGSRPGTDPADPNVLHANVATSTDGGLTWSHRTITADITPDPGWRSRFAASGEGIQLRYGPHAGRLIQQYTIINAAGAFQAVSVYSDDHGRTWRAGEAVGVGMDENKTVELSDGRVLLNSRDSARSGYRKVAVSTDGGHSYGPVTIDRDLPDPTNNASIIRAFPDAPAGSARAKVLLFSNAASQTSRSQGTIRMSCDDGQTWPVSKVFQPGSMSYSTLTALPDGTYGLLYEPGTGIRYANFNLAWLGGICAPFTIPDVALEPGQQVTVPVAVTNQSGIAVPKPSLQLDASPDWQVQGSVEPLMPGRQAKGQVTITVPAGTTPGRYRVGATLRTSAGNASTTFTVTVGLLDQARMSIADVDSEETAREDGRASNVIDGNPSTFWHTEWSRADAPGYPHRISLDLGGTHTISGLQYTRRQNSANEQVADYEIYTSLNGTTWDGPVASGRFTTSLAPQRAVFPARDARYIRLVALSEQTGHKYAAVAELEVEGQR

[3] = tested on: S. typhimurium sialidase; conditions: substrate of S. typhimurium sialidase; cited from earlier work
[4] = target: S. typhimurium sialidase; conditions: cited from earlier work

CC(=O)N[C@H]1[C@H]([C@H](O)[C@H](O)CO)OC(C(=O)O)=C[C@@H]1N=C(N)N [4-guanidino-Neu5Ac2en]
inhibition selectivity for influenza virus sialidase versus bacterial sialidases ([1]; influenza virus versus bacterial sialidases): inhibition selectivity of 4-guanidino-Neu5Ac2en for influenza virus sialidase versus bacterial sialidases

CC(=O)Nc1c(O)cc(C(=O)O)cc1[N+](=O)[O-] [HNBA, 4-acetylamino-3-hydroxyl-5-nitro-benzoic acid]
inhibition of type A and B influenza virus sialidase (in words) ([1]; both type A and B): potent inhibitors | inhibition of influenza virus sialidase (in words) [1]: millimolar | IC50 [1]: ~10 mM | inhibition of bacterial sialidase (in words) [2]: inhibited bacterial sialidase with efficiencies similar to Neu5Ac2en

CC(=O)NC1C(O)CC(Oc2ccc3c(C)cc(=O)oc3c2)(C(=O)O)OC1C(O)C(O)CO [MUN, 4-methylumbelliferyl-a-D-N-acetylneuraminic acid]
Km [3]: 250 µM | turnover number [3]: 2,700 sec^-1

CC(=O)N[C@H]1[C@H]([C@H](O)[C@H](O)CO)OC(C(=O)O)=C[C@@H]1O [Neu5Ac2en]
IC50 [1]: ~10 mM | Ki [4]: 0.38 mM

CC(=O)N[C@H]1[C@H]([C@H](O)[C@H](O)CO)OC(O)(C(=O)O)C[C@@H]1O (stereo partly shown) [Neu5Ac]
inhibition by high levels of the cleavage product ([4]; high levels, compared to influenza virus sialidase): do not inhibit the bacterial sialidase
